Measured values from ChEMBL document CHEMBL1146448, “Cavernosolide, a New Sesterterpene from a Tyrrhenian Sponge” (J Nat Prod, 1997).
Values after ≈ are worked out from the molar mass of the structure shown.

Experiments:
[1] = Toxicity in Artemia salina; format: organism-based; details: in vivo
[2] = Toxicity in Gambusia affinis; format: organism-based; details: in vivo

CC(=O)O[C@H]1O[C@@H](C2=CC(=O)O[C@@H]2O)C[C@@H]2[C@@H]1CC[C@H]1[C@@]2(C)CC[C@H]2C(C)(C)CCC[C@]12C [CAVERNOSOLIDE]
LC50 [1]: 0.37 µg/mL (≈ 0.803 µM) | LC50 [2]: 0.75 µg/mL (≈ 1.63 µM)
